In patent publication US4950602A, “Inhibition of lactate production by pyruvate adducts” (Cornell Research Foundation, Inc., priority 1987, dated 1990):
Where two headings read alike, the source gives them in different places. One block for each compound: values may come before it.

Key:
lactate dehydrogenase = assay: Reactive α-keto and α-hydroxy acids as inhibitors of lactate dehydrogenase; format: biochemical
Experimental: (§1) Each of the enzymes was assayed by procedures in which change of absorbance at 340 nm due to NADH was followed essentially as described by Bergmeyer (1974, Methods of Enzymatic Analysis, 2nd Eng. Ed., Verlag Chemie Weinheim Academic Press, N.Y.) with the following exceptions. Phosphofructokinase was assayed according to the method of Lai et al (1984, J. Neurochem., 42:438-446). NAD^+ -linked isocitrate dehydrogenase was assayed as described by Lai and Clark (1976, Biochem. J., 154:423-432). Pyruvate and α-ketoglutarate dehydrogenase complexes were respectively assayed according to the methods of Lai and Sheu (1985, J. Neurochem., 45:1861-1868) and Lai and Cooper (1986) (J. Neurochem, 47:1376-1386).

[1] = biological target: T1, beef heart lactate dehydrogenase (Bos taurus, UniProt Q5E9B1); assay: Inhibition of beef heart lactate dehydrogenase (NADH absorbance at 340 nm); format: biochemical, bovine; conditions: for Relative Activity (%) Beef Heart: 0.24 mM pyruvate, 0.1 mM NADH, pH 7.2, 25° C.
T1 construct: purchased Worthington Biochemical Corporation (Freehold, N.J.); host or cells: beef heart
Text: Enzymes and enzyme assays. Rabbit muscle glyceraldehyde-3-phosphate dehydrogenase (80 U/mg: ammonium sulfate suspension), rabbit muscle glycerol-3-phosphate dehydrogenase (40 U/mg; ammonium sulfate suspension),beef liver glutamate dehydrogenase (120 U/mg: in 50% glycerol), mitochondrial pig heart malate dehydrogenase (1100 U/mg; in 50% glycerol) and yeast hexokinase (140 U/mg; ammonium sulfate suspension) were purchased from Boehringer Mannheim Corp. (Indianapolis). Beef heart lactate dehydrogenase (280 U/mg) was purchased from Worthington Biochemical Corporation (Freehold, N.J.). Porcine heart L-alanine aminotransferase (130 U/mg), rabbit muscle phosphofructokinase (140 U/mg; ammonium sulfate suspension), bovine heart α-ketoglutarate (8 U/mg) and pyruvate (5 U/mg) dehydrogenase complexes, sodium pyruvate, L-methionine-SR-sulfoximine, DL-vinylglycine, NAD^+, NADH and NAD^+ analogues (3-acetylpyridine, thionicotinamide, and 3-pyridinealdehyde adenine dinucleotides) were purchased from Sigma Chemical Company (St. Louis, Mo.).
as §1
(§2) The reaction mixture (1 ml) contained 0.24 mM sodium pyruvate, 0.1 mM
(§3) NADH, 100 mM potassium phosphate buffer (pH 7.2) and either purified
(§4) bovine heart lactate dehydrogenase (0.01 U) or rat brain homogenate
(§5) containing ~0.02 U of lactate dehydrogenase activity; 25° C.
(§6) Since APADpyruvate adduct and RAP have a tendency to revert to pyruvate
(§7) they were added to the reaction mixture just prior to addition of enzyme.
(§8) Because the kinetics obtained with tightbinding inhibitors depends on the
(§9) order of addition of substrates and inhibitors the enzyme was always adde
(§10) last. Each value is the average of at least 3 determinations. Each of the […]

[2] = system: rat brain lactate dehydrogenase; assay: Inhibition of rat brain lactate dehydrogenase (rat brain homogenate); format: biochemical; conditions: rat brain homogenate, 0.24 mM pyruvate, 0.1 mM NADH, pH 7.2, 25° C.
Experimental: as §1, §2, §3, §4, §5, §6, §7, §8, §9, §10

[3] = biological target: lactate dehydrogenase (dogfish enzyme) (Squalus acanthias, UniProt P00341); conditions: Burgner and Ray 1984; cited from earlier work
[4] = cited from earlier work; for stability in solution: Burgner and Ray 1984
[5] = biological target: chicken H4 lactate dehydrogenase (Gallus gallus, UniProt P00337); conditions: concentration not given; Everse et al 1971; cited from earlier work
[6] = biological target: pig heart mitochondrial malate dehydrogenase (Sus scrofa, UniProt P00346); conditions: concentration that inhibited chicken H4 lactate dehydrogenase by 59%; Everse et al 1971; cited from earlier work
[7] = biological target: horse liver alcohol dehydrogenase (Equus caballus, UniProt P00327); conditions: concentration that inhibited chicken H4 lactate dehydrogenase by 59%; Everse et al 1971; cited from earlier work
[8] = biological target: yeast alcohol dehydrogenase (Saccharomyces cerevisiae, UniProt P00330); conditions: concentration that inhibited chicken H4 lactate dehydrogenase by 59%; Everse et al 1971; cited from earlier work
[9] = system: dogfish liver glutamate dehydrogenase; conditions: concentration that inhibited chicken H4 lactate dehydrogenase by 59%; Everse et al 1971; cited from earlier work

T1 sequence (Q5E9B1 whole entry): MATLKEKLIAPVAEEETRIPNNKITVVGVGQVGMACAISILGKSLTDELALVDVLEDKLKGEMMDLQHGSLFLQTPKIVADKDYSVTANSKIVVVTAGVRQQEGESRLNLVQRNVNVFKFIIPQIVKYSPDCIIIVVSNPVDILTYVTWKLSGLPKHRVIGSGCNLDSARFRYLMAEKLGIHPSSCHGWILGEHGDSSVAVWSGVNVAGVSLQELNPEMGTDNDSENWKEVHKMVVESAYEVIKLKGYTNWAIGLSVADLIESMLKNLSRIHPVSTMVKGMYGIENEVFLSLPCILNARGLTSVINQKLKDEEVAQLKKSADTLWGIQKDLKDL
yeast alcohol dehydrogenase, sequence (P00330 whole entry): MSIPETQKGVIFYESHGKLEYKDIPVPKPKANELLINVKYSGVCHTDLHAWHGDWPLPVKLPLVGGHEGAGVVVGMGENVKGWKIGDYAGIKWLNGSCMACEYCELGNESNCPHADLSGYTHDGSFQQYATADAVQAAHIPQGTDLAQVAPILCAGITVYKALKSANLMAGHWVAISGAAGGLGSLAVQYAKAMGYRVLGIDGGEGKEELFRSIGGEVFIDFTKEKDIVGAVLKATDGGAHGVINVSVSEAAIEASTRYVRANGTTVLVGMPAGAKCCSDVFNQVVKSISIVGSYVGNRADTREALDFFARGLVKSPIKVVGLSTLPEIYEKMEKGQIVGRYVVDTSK
chicken H4 lactate dehydrogenase, sequence (P00337 whole entry): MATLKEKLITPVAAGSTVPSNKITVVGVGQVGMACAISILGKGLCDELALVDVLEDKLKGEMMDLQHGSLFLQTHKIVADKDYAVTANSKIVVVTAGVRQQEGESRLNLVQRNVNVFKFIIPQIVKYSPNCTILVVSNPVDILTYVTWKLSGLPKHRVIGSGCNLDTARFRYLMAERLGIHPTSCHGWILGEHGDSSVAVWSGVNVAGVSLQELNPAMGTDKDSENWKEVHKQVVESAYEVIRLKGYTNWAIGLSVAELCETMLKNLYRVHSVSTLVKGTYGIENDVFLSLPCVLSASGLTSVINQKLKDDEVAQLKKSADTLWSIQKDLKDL
lactate dehydrogenase (dogfish enzyme), sequence (P00341 whole entry): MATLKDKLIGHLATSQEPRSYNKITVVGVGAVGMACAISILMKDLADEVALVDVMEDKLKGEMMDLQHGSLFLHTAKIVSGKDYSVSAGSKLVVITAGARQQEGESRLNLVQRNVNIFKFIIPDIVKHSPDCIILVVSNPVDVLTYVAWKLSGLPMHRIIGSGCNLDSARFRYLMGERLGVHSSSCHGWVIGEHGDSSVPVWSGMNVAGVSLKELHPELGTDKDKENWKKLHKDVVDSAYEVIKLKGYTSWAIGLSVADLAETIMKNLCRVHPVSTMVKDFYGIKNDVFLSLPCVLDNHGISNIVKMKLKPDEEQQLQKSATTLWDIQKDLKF
horse liver alcohol dehydrogenase, sequence (P00327 whole entry): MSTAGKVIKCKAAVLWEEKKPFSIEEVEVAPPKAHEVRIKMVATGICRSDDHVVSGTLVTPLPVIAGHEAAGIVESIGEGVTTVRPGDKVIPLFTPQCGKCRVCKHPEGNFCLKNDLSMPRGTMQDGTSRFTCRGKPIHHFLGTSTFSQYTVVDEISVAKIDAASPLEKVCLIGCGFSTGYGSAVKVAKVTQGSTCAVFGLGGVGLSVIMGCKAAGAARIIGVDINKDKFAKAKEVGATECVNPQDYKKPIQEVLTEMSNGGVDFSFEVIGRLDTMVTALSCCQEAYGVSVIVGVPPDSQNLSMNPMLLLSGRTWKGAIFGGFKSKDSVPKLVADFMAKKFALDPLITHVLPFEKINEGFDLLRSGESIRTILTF
pig heart mitochondrial malate dehydrogenase, sequence (P00346 25-338): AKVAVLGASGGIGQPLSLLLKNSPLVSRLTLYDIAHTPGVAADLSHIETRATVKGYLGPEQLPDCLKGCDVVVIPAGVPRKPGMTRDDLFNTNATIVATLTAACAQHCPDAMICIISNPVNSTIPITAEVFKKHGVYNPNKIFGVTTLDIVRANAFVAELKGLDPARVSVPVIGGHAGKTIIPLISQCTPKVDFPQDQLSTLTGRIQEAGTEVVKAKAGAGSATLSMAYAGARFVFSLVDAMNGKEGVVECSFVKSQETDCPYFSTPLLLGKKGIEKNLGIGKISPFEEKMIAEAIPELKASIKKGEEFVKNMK

Relative Activity (%) Beef Heart ([1]; additive 0.7 μM): 38%
Relative Activity (%) Beef Heart ([1]; additive 1.4 μM): 17%
Relative Activity (%) Rat Brain ([2]; additive 1.4 μM): 33%
Compound: NC(=S)C1=CN([C@@H]2O[C@H](COP(=O)(O)OP(=O)(O)OC[C@H]3O[C@@H](n4cnc5c(N)ncnc54)[C@H](O)[C@@H]3O)[C@@H](O)[C@H]2O)C=CC1CC(=O)C(=O)O (stereo partly drawn) [Thio analogue]

action on lactate dehydrogenase (lactate dehydrogenase): substrates, not inhibitors
Compound: Vinylglycolate

The remaining lines, values behind:

Compound: CC=CC(=O)C(=O)O [2-oxo-3-pentenoic acid]
action on lactate dehydrogenase (lactate dehydrogenase): substrates, not inhibitors

Compound: CC(=O)C1=CN([C@@H]2O[C@H](COP(=O)(O)OP(=O)(O)OC[C@H]3O[C@@H](n4cnc5c(N)ncnc54)[C@H](O)[C@@H]3O)[C@@H](O)[C@H]2O)C=CC1CC(=O)C(=O)O (stereo partly drawn) [Acetyl analogue, reference compound]
Relative Activity (%) Beef Heart ([1]; additive 0.08 μM): 90%
Relative Activity (%) Beef Heart ([1]; additive 0.42 μM): 60%
Relative Activity (%) Beef Heart ([1]; additive 0.84 μM): 21%
Relative Activity (%) Rat Brain ([2]; additive 0.42 μM): 61%
Relative Activity (%) Rat Brain ([2]; additive 0.84 μM): 30%
Ki [3]: 0.1 nM
stability in solution ([4]; pH 7.0): reverts to free pyruvate and APAD
stability in solution ([4]; pH 11.0): relatively stable

Compound: NC(=O)C1=CN([C@@H]2O[C@H](COP(=O)(O)OP(=O)(O)OC[C@H]3O[C@@H](n4cnc5c(N)ncnc54)[C@H](O)[C@@H]3O)[C@@H](O)[C@H]2O)C=CC1CC(=O)C(=O)O (stereo partly drawn) [NAD-pyruvate adduct]
Relative Activity (%) Beef Heart ([1]; additive 34 μM): 90%
Relative Activity (%) Beef Heart ([1]; additive 68 μM): 62%
Relative Activity (%) Beef Heart ([1]; additive 136 μM): 38%
Ki ([1]; calculated from Table 1 data with Km for NADH 2.5 μM, standard equation for a competitive inhibitor, read-out: Ki): 2600 nM
Relative Activity (%) Rat Brain ([2]; additive 34 μM): 48%
inhibition of chicken H4 lactate dehydrogenase [5]: 59%
effect on pig heart mitochondrial malate dehydrogenase [6]: little effect
effect on horse liver alcohol dehydrogenase [7]: little effect
effect on yeast alcohol dehydrogenase [8]: little effect
effect on dogfish liver glutamate dehydrogenase [9]: little effect
stability (loss of absorbance at 340 nm) ([4]; Everse et al 1971): relatively unstable and easily oxidized
